Results taken from publication PMC5244392, “Interspecies cathelicidin comparison reveals divergence in antimicrobial activity, TLR modulation, chemokine induction and regulation of phagocytosis” (Scientific Reports, 2017).

How the values were obtained:
E. coli O78 = assay: Bacterial growth delay (Bioscreen C), E. coli; format: cell-based, Escherichia coli; settings: for Max: hours growth delay with 20 μM cathelicidin, E. coli, DMEM: DMEM + FCS
Description: (§1) E. coli O78 (Zoetis Animal Health, Kalamazoo, MI, USA), E. coli ATCC 25922, Staphylococcus aureus ATCC 29213, and methicillin resistant Staphylococcus aureus (MRSA) (WKZ-2, human clinical isolate) were grown overnight from a glycerol stock in Mueller Hinton Broth (MHB) (Becton Dickinson, USA). Before use, bacteria were grown to mid-log phase in MHB for 2 hours at 37 °C, 200 RPM. Murine RAW264.7 macrophages (ATCC-TIB-71) were obtained from the American Type Culture Collection (ATCC, Manassas, VA, USA) and cultured in DMEM (41966-029; Thermo Fisher Scientific, Waltham, MA, USA) supplemented with 10% FCS (Bodinco B.V., Alkmaar, the Netherlands) (DMEM + FCS) at 37 °C, 5.0% CO2. Cells were seeded in 96-wells plates at 5 × 10^5 cells/ml or 12-wells plates at 2 × 10^5/ml for adherence overnight prior to stimulation.
(§2) Peptides (0.63 to 40 μM) and bacteria mid-log cultures (2 * 10^6 CFU/ml) were prepared in MHB or DMEM + FCS and mixed (100 μl peptide + 100 μl bacterial culture) in a Bioscreen C analyzer plate (Oy Growth Curves Ab Ltd, Helsingfors, Finland). Plates were placed in a Bioscreen C analyzer (Oy Growth Curves Ab Ltd) and bacteria were grown for 16 h at 37 °C with 200 RPM. The OD was measured every 15 minutes using a wideband filter (450–580 nm) to measure bacterial growth. The time needed grow above an OD of 0.6 was determined for all concentrations. Activity of peptides was expressed as the Cmax, the concentration of peptide required to delay the growth for 10 h compared to the control. Or, for peptides with low activity (no Cmax), activity was expressed as the hours of growth delay at 20 μM. Unlike the classic MIC and MBC determination used in microbiology, this method also enabled comparison of peptides with low antibacterial activity.
(§3) Twelve cathelicidins from 6 different species were selected for this study, namely: human LL-37, murine CRAMP, dog K9CATH, equine CATH (eCATH)-1, -2 and -3, chicken CATH (chCATH)-1, -2, and -3, porcine PMAP-23 and -36 and PR-39 (Table 1). Antimicrobial activity against E. coli and MRSA was directly compared under standardized conditions in MHB, a medium optimized for bacterial growth. Bacterial growth delay was defined as the delay in hours for peptide-treated bacteria to reach an OD of 0.6, compared to the non-treated control. Cmax is the minimal concentration needed to delay growth for a minimum of 10 hours compared to the non-treated control (Table 1 and Fig. 1A).
(§4) Figure 1 Antibacterial activity of cathelicidins. E. coli and MRSA (1 × 10^6 CFU/ml) of were grown in MHB or DMEM ± FCS for 16 hours under constant shaking (200 RPM). Every 15 minutes the OD was measured. Growth delay was defined as the time needed for peptide-treated bacteria to grow above an OD of 0.6 compared to the control bacteria (no peptide added) (A). Cathelicidins were tested in different concentrations (0.31 μM, 0.63 μM, 1.25 μM, 2.5 μM, 5 μM, 10 μM, and 20 μM) to determine the antimicrobial activity in MHB against E. coli (B) or MRSA (C) and in more physiological medium DMEM + FCS (D,E). Results are presented as average +/− SEM (N = 4).

[1] = tested on: methicillin resistant Staphylococcus aureus (MRSA) (WKZ-2, human clinical isolate); assay: Bacterial growth delay (Bioscreen C), MRSA; format: cell-based
Description: as §1, §2, §3, §4

[2] = tested on: CCL2 (MCP-1) release by RAW264.7 cells; assay: Cathelicidin induced CCL2 release; format: cell-based, murine; settings: 24 h, peptide 0.08-20 μM
Description: as §1
ELISA Duoset kits for mouse TNFα, CCL5, CXCL10 and IL-10 were obtained from R&D systems (Minneapolis, MN, USA) and ELISAs were performed according to the manufacturer’s protocol. Samples were stored at −20 °C until analysis and, if needed, diluted in 1% BSA in PBS, pH 7.4. Absorbance at 450 nm was determined in a FLUOstar Omega microplate reader (BMG Labtech GmbH) and corrected for absorbance at 570 nm. Results were analyzed with MARS data analysis software (BMG Labtech GmbH).
Since cathelicidins have membrane-perturbing properties which might affect the host’s cell membrane, first the possible cytotoxicity of the cathelicidins to RAW264.7 cells was assessed. […] Next, RAW264.7 cells were stimulated with the cathelicidins at various concentrations for 2 h and 24 h, after which release of CCL2 (MCP-1), CCL5 (RANTES), CXCL10 (IP-10), TNFα and IL-10 was determined.
Figure 2 Cathelicidin induced chemokine and cytokine release by RAW264.7 cells. RAW264.7 cells were incubated for 2 h and 24 h with cathelicidins (0.08 μM, 0.31 μM, 1.25 μM, 5 μM, and 20 μM), after which the supernatants were harvested and tested for release of CCL2 at 2 h (A) and 24 h (B), CCL5 at 24 h (C) and CXCL10 at 24 h (D). Dotted line represents average cytokine release of control samples. Results are presented as average +/− SEM (N = 3). Statistical differences were determined by Two-way ANOVA with Bonferroni post-hoc test.

RAW264.7 cells = assay: Phagocytosis assay with fluorescent latex beads; format: cell-based, murine; settings: latex beads 10 per cell, 30 min, peptide 0.31, 1.25 and 5 μM
Description: Red fluorescent (λex 575 nm and λem 610 nm) carboxylate-modified polystyrene latex beads (0.5 μm; Sigma Aldrich, St. Louis, MO, USA) were washed three times with PBS and resuspended in culture medium. Peptide dilutions were prepared in culture medium and added to RAW264.7 cells, directly followed by the latex beads (ratio 10 beads to 1 cell). Cells were incubated for 30 minutes at 37 °C, 5% CO2 (energy-dependent uptake) or 0 °C (non-specific adherence), after which cells were washed extensively with ice-cold PBS supplemented with 1% FCS and 0.01% NaN3, to remove all free beads. After washing, cells were scraped and resuspended in FACS buffer (PBS supplemented with 0.5% BSA). Samples were measured with the BD FACSCanto II flow cytometer (BD Biosciences, San Jose, CA, USA) and analyzed with FlowJo software (Ashland, OR, USA). Mean fluorescence intensity (MFI), corrected for non-specific adherence, was used as an indicator for the number of beads taken up.
While the above-described functions of cathelicidins are well-known, relatively little is known about the influence of cathelicidins on phagocytosis. Therefore, RAW264.7 cells were incubated with fluorescent beads to study the effect of cathelicidins on phagocytosis. The uptake was corrected for fluorescence measured after incubation on ice instead of 37 °C, which inhibits the active process of phagocytosis. After 30 minutes, 90% of the RAW264.7 cells took up latex beads (Fig. 4A). Histograms exemplify changes in bead phagocytosis with different concentrations of K9CATH (Fig. 4B), eCATH-2 (Fig. 4C) and chCATH-3 (Fig. 4D). Effect of all cathelicidins are depicted by the average mean fluorescence intensity (MFI) in Fig. 4E.
Figure 4 Effects of cathelicidins on phagocytosis by RAW264.7 cells. RAW264.7 cells were incubated with cathelicidins (0.31 μM, 1.25 μM, and 5 μM) and red fluorescent latex beads (10 beads to 1 cell) at 37 °C (energy dependent uptake) or on ice (non-specific adherence) for 30 minutes. Histograms show control (no peptide present) bead uptake at 37 °C (gray, filled) and 0 °C (black line) (A), or uptake in presence of different concentrations of indicated cathelicidins (B–D); 0 μM (red, filled), 0.31 μM (black line), 1.25 μM (green line) or 5 μM (blue line). Uptake was quantified by determining the MFI after correction for 0 °C control (E). Results are presented as average +/− SEM (N = 3). Statistical differences were determined by Two-way ANOVA with Bonferroni post-hoc test.

E. coli and MRSA = format: cell-based; settings: run of Fig. 1A; bacterium and medium not given
Description: In order to compare our Cmax with MBC values, wells without visible bacterial growth were plated out on TSA plates and incubated o/n at 37 °C to determine the presence of viable bacteria.
The antimicrobial capacities were tested under the same conditions and expressed as growth delay instead of the more classical MIC/MBC determination using broth dilution assays. […] The fact that DMEM medium makes S. aureus susceptible to PR-39 is surprising since this peptide is thought to require active uptake by the SbmA transporter, only present in Gram – bacteria. The results obtained in this work, might indicate that the peptide possibly switches to a different mechanism of action with initially a bacteriostatic effect, but more thorough studies are required to elucidate the details of these initial observations.

[3] = 20 μM peptide, given if no Cmax was reached, N = 4
[4] = MHB, 20 μM peptide, given if no Cmax was reached, N = 4

For “KRFGRLAKSFLRMRILLPRRKILLAS [eCATH-1, equine CATH-1, 26 residues, charge +9]”, the “Max: hours growth delay with 20 μM cathelicidin, E. coli, DMEM” value (E. coli O78; [3]) was 3.5 h, the “Cmax: cathelicidin concentration resulting in a delay in bacterial growth with minimal 10 hours, E. coli, MHB” value (E. coli O78; MHB, 1 × 10^6 CFU/ml, peptide 0.31-20 μM, 16 h, 37 °C, 200 RPM, time to OD 0.6 vs control, — = no Cmax reached up to 20 μM, N = 4) was 20 µM and the “Summary class, antimicrobial activity E. coli MHB” value (E. coli O78; MHB, − is not defined in the key) was “+++ (+++ = Cmax at ≤20 μM)”. The “Cmax, MRSA, DMEM” value ([1]; DMEM + FCS, 1 × 10^6 CFU/ml, peptide 0.31-20 μM, 16 h, 37 °C, — = no Cmax reached up to 20 μM, N = 4) was 20 µM, the “Summary class, antimicrobial activity S. aureus DMEM” value ([1]; DMEM + FCS, MRSA, − is not defined in the key) was “+++ (+++ = Cmax at ≤20 μM)” and the “Max: hours growth delay with 20 μM cathelicidin, MRSA, MHB” value [1, 4] was 7.5 h. For the same compound, the “Summary class, antimicrobial activity S. aureus MHB” value ([1]; MHB, MRSA, − is not defined in the key) was “+ (+ = >4 hours inhibition at 20 μM)”, the “Effect on CCL2 secretion after 24 h stimulation, in words” value [2] was “non-significant” and the “Effect on bead uptake (phagocytosis), in words” value (RAW264.7 cells) was “did not affect bead uptake”.

In the case of “KRFHSVGSLIQRHQQMIRDKSEATRHGIRIITRPKLLLAS [eCATH-3, equine CATH-3, 40 residues, charge +10]”, the “Max: hours growth delay with 20 μM cathelicidin, E. coli, DMEM” value (E. coli O78; [3]) is reported as 1.5 h, the “Activity against E. coli in MHB, in words” value (E. coli O78; MHB, peptide up to 20 μM) is reported as “no or very little activity” and the “Max: hours growth delay with 20 μM cathelicidin, E. coli, MHB” value (E. coli O78; MHB, 20 μM peptide, given if no Cmax was reached, time to OD 0.6 vs control, N = 4) is reported as 0.0 h. For the same compound, the “Max: hours growth delay with 20 μM cathelicidin, MRSA, DMEM” value ([1]; DMEM + FCS, 20 μM peptide, given if no Cmax was reached, N = 4) was 1.5 h, the “Max: hours growth delay with 20 μM cathelicidin, MRSA, MHB” value [1, 4] was 0.0 h and the “Effect on bead uptake (phagocytosis), in words” value (RAW264.7 cells) was “did not affect bead uptake”.

`CC[C@H](C)[C@H](NC(=O)[C@H](CCCCN)NC(=O)[C@H](CCC(=O)O)NC(=O)[C@H](CCCCN)NC(=O)[C@H](CO)NC(=O)[C@H](CCCCN)NC(=O)[C@H](CCCNC(=N)N)NC(=O)[C@H](Cc1ccccc1)NC(=O)[C@H](Cc1ccccc1)NC(=O)[C@H](CC(=O)O)NC(=O)CNC(=O)[C@H](CC(C)C)NC(=O)[C@@H](N)CC(C)C)C(=O)NCC(=O)N[C@@H](CCCCN)C(=O)N[C@@H](CCC(=O)O)C(=O)N[C@@H](Cc1ccccc1)C(=O)N[C@@H](CCCCN)C(=O)N[C@@H](CCCNC(=N)N)C(=O)N[C@H](C(=O)N[C@H](C(=O)N[C@@H](CCC(N)=O)C(=O)N[C@@H](CCCNC(=N)N)C(=O)N[C@H](C(=O)N[C@@H](CCCCN)C(=O)N[C@@H](CC(=O)O)C(=O)N[C@@H](Cc1ccccc1)C(=O)N[C@@H](CC(C)C)C(=O)N[C@@H](CCCNC(=N)N)C(=O)N[C@@H](CC(N)=O)C(=O)N[C@@H](CC(C)C)C(=O)N[C@H](C(=O)N1CCC[C@H]1C(=O)N[C@@H](CCCNC(=N)N)C(=O)N[C@H](C(=O)N[C@@H](CCC(=O)O)C(=O)N[C@@H](CO)C(=O)O)[C@@H](C)O)C(C)C)[C@@H](C)CC)C(C)C)[C@@H](C)CC` [LL-37] was tested, and the MBC (E. coli and MRSA) was > 20 µM.
